# Results published in patent US12509449B2, “Anthelmintic compounds comprising a quinoline structure” (Intervet Inc., priority 2019, dated 2025).
# Legend:
# [1] = biological target: T1, human Maxi K channel (BK channel), KCNMA1 (KCa1.1) and beta1 (KCNMB1) subunits (Homo sapiens, UniProt Q12791); assay: Agonistic activity at the human Maxi K channel (BK channel), membrane potential (FLIPR) in transfected CHO K1 cells; type: cell-based; conditions: membrane potential dye, 70 mM KCl
# T1 construct: expressed in transfected cells; host or cells: CHO K1
# T1 sequence (Q12791 1-1178 isoform Q12791-5): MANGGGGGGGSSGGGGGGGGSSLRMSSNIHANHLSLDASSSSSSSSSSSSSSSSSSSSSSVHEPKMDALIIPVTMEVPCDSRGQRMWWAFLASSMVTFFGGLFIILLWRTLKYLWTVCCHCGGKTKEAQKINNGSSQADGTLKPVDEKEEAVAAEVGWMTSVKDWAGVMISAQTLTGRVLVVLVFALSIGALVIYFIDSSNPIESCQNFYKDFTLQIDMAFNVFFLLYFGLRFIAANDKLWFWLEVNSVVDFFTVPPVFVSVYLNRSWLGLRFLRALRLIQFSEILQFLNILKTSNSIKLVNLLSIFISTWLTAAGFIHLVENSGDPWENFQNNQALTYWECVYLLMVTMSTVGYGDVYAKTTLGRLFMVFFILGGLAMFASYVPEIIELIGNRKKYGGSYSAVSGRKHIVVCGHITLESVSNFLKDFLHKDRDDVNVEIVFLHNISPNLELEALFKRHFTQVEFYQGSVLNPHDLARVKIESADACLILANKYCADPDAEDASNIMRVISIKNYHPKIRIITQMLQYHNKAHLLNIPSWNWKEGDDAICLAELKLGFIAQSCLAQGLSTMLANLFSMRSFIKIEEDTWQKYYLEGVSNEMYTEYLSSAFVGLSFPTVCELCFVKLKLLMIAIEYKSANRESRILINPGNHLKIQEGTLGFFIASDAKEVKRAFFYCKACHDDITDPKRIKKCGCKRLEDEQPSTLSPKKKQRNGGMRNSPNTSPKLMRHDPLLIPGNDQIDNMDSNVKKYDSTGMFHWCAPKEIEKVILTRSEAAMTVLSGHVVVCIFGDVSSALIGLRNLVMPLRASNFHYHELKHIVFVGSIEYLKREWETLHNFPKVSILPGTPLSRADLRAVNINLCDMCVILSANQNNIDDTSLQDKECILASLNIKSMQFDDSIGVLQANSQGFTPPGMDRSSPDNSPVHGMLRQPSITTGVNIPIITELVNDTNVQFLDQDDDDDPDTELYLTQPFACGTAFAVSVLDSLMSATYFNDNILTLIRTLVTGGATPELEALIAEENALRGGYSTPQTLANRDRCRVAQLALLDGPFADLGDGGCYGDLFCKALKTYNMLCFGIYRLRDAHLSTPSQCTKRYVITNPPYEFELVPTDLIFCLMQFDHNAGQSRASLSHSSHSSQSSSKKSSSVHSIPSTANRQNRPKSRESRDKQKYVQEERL
# T1 sequence (Q16558 whole entry partner): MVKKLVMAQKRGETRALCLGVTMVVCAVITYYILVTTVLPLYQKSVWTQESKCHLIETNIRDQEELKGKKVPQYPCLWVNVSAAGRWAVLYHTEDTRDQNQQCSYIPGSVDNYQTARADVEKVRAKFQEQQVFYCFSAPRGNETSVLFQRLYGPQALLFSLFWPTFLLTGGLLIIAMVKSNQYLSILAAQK
# Excerpt: A CHO K1 cell line was stably transfected with the KCNMA1 (KCa1.1, U11058) and beta1 (KCNMB1) subunits of the human Maxi K channel (Ponte et al, Molecular Pharmacology 2012, 81(4), 567-577).
# The complete measurement takes 150 s.
# [2] = biological target: Caenorhabditis elegans slo-1a (Caenorhabditis elegans, UniProt Q95V25); assay: Agonistic activity at C. elegans Slo-1a, membrane potential (FLIPR) in transfected CHO K1 cells; conditions: EC50 agonistic activity at C. elegans Slo-1a, membrane potential dye, 70 mM KCl
# Caenorhabditis elegans slo-1a, sequence (Q95V25 whole entry): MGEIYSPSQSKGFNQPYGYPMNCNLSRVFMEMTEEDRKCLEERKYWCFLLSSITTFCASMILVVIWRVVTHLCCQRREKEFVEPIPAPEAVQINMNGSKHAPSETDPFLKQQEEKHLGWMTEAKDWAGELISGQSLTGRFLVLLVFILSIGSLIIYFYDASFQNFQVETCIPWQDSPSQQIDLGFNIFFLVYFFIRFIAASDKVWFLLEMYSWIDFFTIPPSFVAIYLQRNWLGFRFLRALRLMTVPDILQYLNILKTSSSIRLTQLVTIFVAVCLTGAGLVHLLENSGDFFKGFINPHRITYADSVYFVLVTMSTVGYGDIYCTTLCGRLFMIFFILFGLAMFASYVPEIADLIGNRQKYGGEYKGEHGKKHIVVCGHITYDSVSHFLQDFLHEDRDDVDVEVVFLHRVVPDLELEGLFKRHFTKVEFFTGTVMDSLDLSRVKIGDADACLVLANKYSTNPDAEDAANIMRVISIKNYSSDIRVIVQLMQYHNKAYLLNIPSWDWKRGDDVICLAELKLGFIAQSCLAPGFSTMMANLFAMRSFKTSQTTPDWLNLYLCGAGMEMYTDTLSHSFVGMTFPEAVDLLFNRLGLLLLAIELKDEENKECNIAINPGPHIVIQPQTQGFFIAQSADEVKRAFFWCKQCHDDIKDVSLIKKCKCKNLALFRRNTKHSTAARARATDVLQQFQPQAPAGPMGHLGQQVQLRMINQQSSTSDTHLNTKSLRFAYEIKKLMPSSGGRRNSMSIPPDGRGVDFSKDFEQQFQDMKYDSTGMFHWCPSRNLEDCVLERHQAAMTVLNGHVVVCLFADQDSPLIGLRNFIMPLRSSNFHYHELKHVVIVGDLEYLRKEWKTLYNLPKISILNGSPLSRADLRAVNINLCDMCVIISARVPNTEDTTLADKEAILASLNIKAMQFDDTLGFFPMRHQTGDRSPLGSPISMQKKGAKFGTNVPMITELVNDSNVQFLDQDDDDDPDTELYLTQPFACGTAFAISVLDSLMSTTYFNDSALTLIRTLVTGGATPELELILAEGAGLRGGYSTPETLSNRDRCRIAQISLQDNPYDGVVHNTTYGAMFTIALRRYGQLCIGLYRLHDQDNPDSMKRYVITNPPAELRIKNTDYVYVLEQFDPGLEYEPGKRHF
# Method: A CHO K1 cell line stably transfected with the Caenorhabditis elegans slo-1a (accession no Y51A2D.19a) was established. Cells were seeded in microtiter plates (black 384-well MTP, clear bottom) in a concentration of 10,000 cells/well in 25 μl medium and cultured for 20 to 24 hours at 37° C. and 5% CO2. The cell medium was removed, and the cells washed with Tyrode's solution. 1 of FMP-dye Blue-Tyrode's was added to each well and incubated at room temperature for 30 min.
# For the membrane potential measurements, the prepared cell plate and substance plate were placed in the FLIPR Tetra (Molecular Devices). The baseline measurement of the fluorescence was stared for 20 sec (Exc. 510-545 nm, Emm. 565-625 nm). The cells were depolarized by addition of 25p of the diluted test compounds (final assay concentration of the KCl-Tyrode: 70 mM KCl, 2 mM CaCl2), 1 mM MgCl2, 0.8 mM NaH2PO4, 5 mM Glucose, 28 mM Hepes, pH 7.4, including the voltage sensitive dye). The complete measurement takes 150 s.
# EC50 values were determined in triplicate utilizing compound dilution series. The data were determined at least in two independent tests. The data were proceeded by using the ActivityBase XE Runner software (IDBS) for curve fitting and calculation of the half-maximal effective concentration.
# Ascaridia galli L3 = assay: In vitro assay Ascaridia galli larval stage 3, minimum effective concentration; type: cell-based; conditions: 20 larvae per well, microscopic examination, read-out: MEC (minimum effective concentration) against Ascaridia galli L3
# Excerpt: […] galli (intestinal roundworm of chicken), larval stage 3 (“L3”); and Oesophagostumum dentatum (nodular worm of swine), larval stages 3 and 4 (respectively “L3” and “L4”) where suspended in a nutrient medium and distributed to 96 well plates with 20 larvae per well. The wells were spiked DMSO solutions of the compounds with declining concentration.
SMILES,EC50 [1],EC50 [2],minimal effective concentration (Ascaridia galli L3)
CC(C)c1c(NC(=O)C2CCCc3ccccc32)cnc2c(-c3cccc(Cl)c3Cl)cccc12 (centres unmarked) [Compound 109],> 30 µM,< 1 µM,
CCc1c(NC(=O)c2ccnc3ccccc23)cnc2c(-c3cccc(Cl)c3Cl)cccc12 [Compound 104],> 30 µM,,≤ 50 µM
Cc1c(NC(=O)c2ccnc3ccccc23)cnc2c(-c3cccc(Cl)c3Cl)cccc12 [Compound 106],> 30 µM,,
O=C(Nc1cnc2c(-c3cc(Cl)cc(Cl)c3)cccc2c1N1CCOCC1)C1CCOc2ccccc21 (centres unmarked) [Compound 7],> 30 µM,< 10 µM,
CC(C)Oc1c(NC(=O)C2CCCc3ccccc32)cnc2c(-c3cc(Cl)cc(Cl)c3)c(F)ccc12 (centres unmarked) [Compound 117],> 30 µM,,
O=C(Nc1cnc2c(-c3cc(Cl)cc(Cl)c3)cccc2c1O)C1CCc2ccccc21 (centres unmarked) [Compound 65],> 30 µM,< 10 µM,
Cc1ccc2c(N(C)C)c(NC(=O)[C@H]3CCCc4ccccc43)cnc2c1-c1cccc(Cl)c1Cl [Compound 184],10 to 30 µM,< 1 µM,
O=C(Nc1cnc2c(-c3cccc(Cl)c3Cl)cccc2c1O)C1CCc2ccccc21 (centres unmarked) [Compound 111],> 30 µM,,
Cc1c(NC(=O)c2cccc3ccccc23)cnc2c(-c3cccc(Cl)c3Cl)cccc12 [Compound 190],> 30 µM,< 10 µM,
CCOc1c(NC(=O)c2cccc3ccccc23)cnc2c(-c3cc(Cl)cc(Cl)c3)c(F)ccc12 [Compound 144],> 30 µM,< 10 µM,
O=C(Nc1cnc2c(-c3cccc(Cl)c3Cl)c(F)ccc2c1N1CCOCC1)C1CCCc2ccccc21 (centres unmarked) [Compound 121],1 to 10 µM,< 1 µM,
O=C(Nc1cnc2c(-c3cc(Cl)cc(Cl)c3)cccc2c1O)c1cccc2ccccc12 [Compound 66],> 30 µM,,≤ 50 µM
CN(C)c1c(NC(=O)c2cccc3ccccc23)cnc2c(-c3cc(Cl)cc(Cl)c3)cccc12 [Compound 153],> 30 µM,< 10 µM,
COCCN(C)c1c(NC(=O)C2CCCc3ccccc32)cnc2c(-c3cccc(Cl)c3Cl)cccc12 (centres unmarked) [Compound 103],> 30 µM,< 1 µM,
COCCNc1c(NC(=O)C2CCCc3ccccc32)cnc2c(-c3cccc(Cl)c3Cl)cccc12 (centres unmarked) [Compound 101],10 to 30 µM,,
CN(C)c1c(NC(=O)[C@H]2CCCc3ccccc32)cnc2c(-c3cc(Cl)cc(Cl)c3)c(Cl)ccc12 [Compound 186],> 30 µM,< 1 µM,
CC(C)Nc1c(NC(=O)C2CCCc3ccccc32)cnc2c(-c3cccc(Cl)c3Cl)cccc12 (centres unmarked) [Compound 97],> 30 µM,,
CCOc1c(NC(=O)C2CCc3ccccc32)cnc2c(-c3cc(Cl)cc(Cl)c3)c(F)ccc12 (centres unmarked) [Compound 134],> 30 µM,,
CN(C)c1c(NC(=O)C2CCOc3ccccc32)cnc2c(-c3cc(Cl)cc(Cl)c3)c(Cl)ccc12 (centres unmarked) [Compound 171],> 30 µM,< 1 µM,
O=C(Nc1cnc2c(-c3cc(Cl)cc(Cl)c3)cccc2c1N1CCOCC1)C1CCc2ccccc21 (centres unmarked) [Compound 82],10 to 30 µM,< 1 µM,

SMILES,EC50 [1],EC50 [2],minimal effective concentration (Ascaridia galli L3)
O=C(Nc1cnc2c(-c3cc(Cl)cc(Cl)c3)c(F)ccc2c1N1CCOCC1)C1CCOc2ccccc21 (centres unmarked) [Compound 126],> 30 µM,< 1 µM,
CN(C)c1c(NC(=O)C2CCCc3ccccc32)cnc2c(-c3cccc(Cl)c3Cl)cccc12 (centres unmarked) [Compound 13],1 to 10 µM,< 1 µM,
CCOc1c(NC(=O)[C@H]2CCCc3ccccc32)cnc2c(-c3cccc(Cl)c3Cl)cccc12 [Compound 54],> 30 µM,< 1 µM,
CCOc1c(NC(=O)c2cccc3ccccc23)cnc2c(-c3cccc(Cl)c3Cl)c(F)ccc12 [Compound 149],> 30 µM,< 1 µM,
CC(C)Oc1c(NC(=O)C2CCCc3ccccc32)cnc2c(-c3cccc(Cl)c3Cl)cccc12 (centres unmarked) [Compound 59],> 30 µM,,
O=C(Nc1cnc2c(-c3cc(Cl)cc(Cl)c3)c(F)ccc2c1N1CCOCC1)c1cccc2ccccc12 [Compound 146],10 to 30 µM,< 1 µM,
O=C(Nc1cnc2c(-c3cccc(Cl)c3Cl)cccc2c1N1CCOCC1)C1CCc2ccccc21 (centres unmarked) [Compound 20],1 to 10 µM,< 1 µM,
O=C(Nc1cnc2c(-c3cc(Cl)cc(Cl)c3)cccc2c1O)C1CCOc2ccccc21 (centres unmarked) [Compound 64],> 30 µM,,
O=C(Nc1cnc2c(-c3cc(Cl)cc(Cl)c3)c(Cl)ccc2c1N1CCOCC1)[C@H]1CCCc2ccccc21 [Compound 185],10 to 30 µM,< 1 µM,
O=C(Nc1cnc2c(-c3cccc(Cl)c3Cl)c(F)ccc2c1N1CCOCC1)C1CCc2ccccc21 (centres unmarked) [Compound 141],1 to 10 µM,< 1 µM,
O=C(Nc1cnc2c(-c3cccc(Cl)c3Cl)cccc2c1N1CCOCC1)C1CCCc2ccccc21 (centres unmarked) [Compound 19],1 to 10 µM,< 1 µM,
Cc1c(NC(=O)c2cccc3ccccc23)cnc2c(-c3cc(Cl)cc(Cl)c3)cccc12 [Compound 198],> 30 µM,,≤ 50 µM
O=C(Nc1cnc2c(-c3cccc(Cl)c3Cl)cccc2c1N1CCOCC1)[C@H]1CCCc2ccccc21 [Compound 53],1 to 10 µM,,
COc1c(NC(=O)[C@H]2CCCc3ccccc32)cnc2c(-c3cccc(Cl)c3Cl)c(C)ccc12 [Compound 183],> 30 µM,< 1 µM,
C=C(C)c1c(NC(=O)c2cccc3ccccc23)cnc2c(-c3cccc(Cl)c3Cl)cccc12 [Compound 189],> 30 µM,,
CC(C)Oc1c(NC(=O)C2CCOc3ccccc32)cnc2c(-c3cc(Cl)cc(Cl)c3)cccc12 (centres unmarked) [Compound 78],> 30 µM,,
CC(C(=O)Nc1cnc2c(-c3cccc(Cl)c3Cl)cccc2c1N(C)C)c1cccc(N(C)C)c1 (centres unmarked) [Compound 50],> 30 µM,,≤ 50 µM
"CC(C)Oc1c(NC(=O)C2CCCc3ccccc32)cnc2c(-c3cc(Cl)cc(Cl)c3)cccc12 (centres unmarked) [Compound 76, N-(8-(3,5-dichlorophenyl)-4-isopropoxyquinolin-3-yl)-1,2,3,4-tetrahydro-naphthalene-1-carboxamide]",> 30 µM,,≤ 50 µM
CN(C)c1c(NC(=O)c2cccc3ccccc23)cnc2c(-c3cccc(Cl)c3Cl)c(F)ccc12 [Compound 150],10 to 30 µM,< 1 µM,
O=C(Cc1ccccc1)Nc1cnc2c(-c3cc(Cl)cc(Cl)c3)cccc2c1N1CCOCC1 [Compound 5],> 30 µM,,

SMILES,EC50 [1],EC50 [2],minimal effective concentration (Ascaridia galli L3)
CC(C(=O)Nc1cnc2c(-c3cc(Cl)cc(Cl)c3)cccc2c1N1CCOCC1)c1ccccc1 (centres unmarked) [Compound 9],> 30 µM,< 1 µM,
CCOc1c(NC(=O)C2CCCc3ccccc32)cnc2c(-c3cccc(Cl)c3Cl)c(F)ccc12 (centres unmarked) [Compound 119],> 30 µM,< 1 µM,
CCc1c(NC(=O)[C@H]2CCCc3ccccc32)cnc2c(-c3cccc(Cl)c3Cl)cccc12 [Compound 204],> 30 µM,< 1 µM,
CCc1c(NC(=O)C2CCOc3ccccc32)cnc2c(-c3cccc(Cl)c3Cl)cccc12 (centres unmarked) [Compound 105],> 30 µM,< 1 µM,
Cc1ccc2c(N3CCOCC3)c(NC(=O)C3CCOc4ccccc43)cnc2c1-c1cc(Cl)cc(Cl)c1 (centres unmarked) [Compound 174],> 30 µM,< 1 µM,
CN(C)c1c(NC(=O)C2CCCc3ccccc32)cnc2c(-c3cc(Cl)cc(Cl)c3)cccc12 (centres unmarked) [Compound 68],> 30 µM,< 1 µM,
CC(C)N(C)c1c(NC(=O)C2CCOc3ccccc32)cnc2c(-c3cccc(Cl)c3Cl)cccc12 (centres unmarked) [Compound 89],> 30 µM,,≤ 50 µM
CCOc1c(NC(=O)C2CCCc3ccccc32)cnc2c(-c3cccc(Cl)c3Cl)cccc12 (centres unmarked) [Compound 55],> 30 µM,< 1 µM,
COCCN(C)c1c(NC(=O)C2CCOc3ccccc32)cnc2c(-c3cccc(Cl)c3Cl)cccc12 (centres unmarked) [Compound 93],> 30 µM,,
CCCc1c(NC(=O)c2cccc3ccccc23)cnc2c(-c3cccc(Cl)c3Cl)cccc12 [Compound 187],> 30 µM,< 1 µM,
CCNc1c(NC(=O)C2CCCc3ccccc32)cnc2c(-c3cccc(Cl)c3Cl)cccc12 (centres unmarked) [Compound 96],10 to 30 µM,,≤ 50 µM
C=C(C)c1c(NC(=O)c2cccc3ccccc23)cnc2c(-c3cc(Cl)cc(Cl)c3)cccc12 [Compound 200],> 30 µM,,≤ 50 µM
COc1c(NC(=O)c2cccc3ccccc23)cnc2c(-c3cccc(Cl)c3Cl)cccc12 [Compound 62],> 30 µM,< 1 µM,
O=C(Nc1cnc2c(-c3cc(Cl)cc(Cl)c3)c(Cl)ccc2c1N1CCOCC1)C1CCOc2ccccc21 (centres unmarked) [Compound 170],> 30 µM,< 1 µM,
CCOc1c(NC(=O)C2CCc3ccccc32)cnc2c(-c3cccc(Cl)c3Cl)c(F)ccc12 (centres unmarked) [Compound 139],> 30 µM,< 1 µM,
CC(C)Oc1c(NC(=O)C2CCc3ccccc32)cnc2c(-c3cc(Cl)cc(Cl)c3)cccc12 (centres unmarked) [Compound 80],> 30 µM,,
O=C(Nc1cnc2c(-c3cc(Cl)cc(Cl)c3)cccc2c1N1CCOCC1)c1cccc2ccccc12 [Compound 74],10 to 30 µM,< 1 µM,
CN(C)c1c(NC(=O)C2CCc3ccccc32)cnc2c(-c3cccc(Cl)c3Cl)c(F)ccc12 (centres unmarked) [Compound 140],10 to 30 µM,< 1 µM,
CN(C)c1c(NC(=O)C2CCc3ccccc32)cnc2c(-c3cc(Cl)cc(Cl)c3)c(F)ccc12 (centres unmarked) [Compound 135],> 30 µM,< 1 µM,
